Key:
[1] = test system: AICARFT; assay: Pharmacodynamic response in beagle dogs (plasma AICAr); format: in vivo, beagle dog; details: for Mean Plasma AICAr: beagle dogs, orally, time of collection post dose 8; for in vivo inhibition of AICARFT (in words): dogs, summary of Table 20
Experimental: The in vivo effects of AICARFT inhibition on the circulating concentration of AICAr is determined by liquid chromatography-mass spectrometry (LC-MS). Standard curves containing AICAr at concentrations of 1 ng/mL-2000 ng/mL are prepared in 40 mM ammonium acetate, pH 4. Plasma samples (75 μL) or standards (75 μL) are combined with 300 μL of an internal standard solution containing 13C5-AICAr (20 ng/mL) and formic acid (1%) in ACN. The samples are vortex mixed for 5 minutes and passed through a Phenomenex Phree 96-well phospholipid removal SPE plate. The eluents are collected in a 96-well plate and dried under heated nitrogen at 50° C. Each sample is reconstituted in 50 μL of 40 mM ammonium acetate, pH 4. The plates are sealed and vortexed for 5 minutes prior to analysis. The LC-MS method utilized a Shimadzu Prominence 20A HPLC system connected to an AB Sciex 5500™ or an AB Sciex 6500™ triple quadrupole mass spectrometer running Analyst® software. Extracted samples are separated using two Thermo Hypercarb™ Javelin guard columns (2.1×20 mm, 5 μm) connected in series with an injection volume of 15 μL and a flow rate of 1 mL/minute. Mobile phase A is a 95:5 mixture of 50 mM ammonium formate, pH 4 and ACN. Mobile phase B is a 70:30 mixture of ACN and MeOH spiked with 0.3% formic acid and 2% concentrated ammonium hydroxide solution (v/v). For mouse plasma samples the following gradient is used: 0 minutes, 0% B; 0.25 minutes, 0% B; 2.00 minutes, 25% B; 2.01 minutes, 95% B; 3.50 minutes, 95% B; 3.51 minutes, 0% B; 4.50 minutes, stop. For dog plasma samples the following gradient is used to remove endogenous interferences: 0 minutes, 0% B; 0.25 minutes, 0% B; 5.99 minutes, 20% B; 6.00 minutes, 95% B; 8.00 minutes, 95% B; 8.01 minutes, 0% B; 10.00 minutes, stop. The mass spectrometer is operated in positive ion TurboIonSpray® multiple reaction monitoring mode with a source temperature of 700° C. The precursor and fragment ions for each analyte are: AICAr (259→127) and 13C5-AICAr (264→127). Calibration curves are constructed by plotting analyte concentrations vs. analyte/internal standard peak area ratios and performing a linear fit of the data using a 1/concentration weighting with AB Sciex MultiQuant™ 2.1 software.
Beagle dogs, non-human primates and human are low serum folate species, whereas rodents are high serum folate (C P Leamon et al. (2008) JPET 327:918-925). The pharmacodynamics response in dogs treated with an AICARFT inhibitor will be more representative of the expected pharmacodynamics response in patients treated with an AICARFT inhibitor.
Animals are returned to the colony for re-use after completion of the experiment.

[2] = target: AICARFT (Homo sapiens, UniProt P31939); assay: AICARFT in vivo target inhibition (IVTI) assay, tumor xenografts (ZMP); set-up: from tissue; host or cells: HCT-116 and NCI-H460 tumour xenografts in female athymic nude mice; species or system mouse
Experimental: In vivo studies are performed using female athymic nude mice (Harlan) with a bodyweight of 23-28 g at first measurement. Upon receipt and throughout the study, the animals are housed 5 animals per cage in appropriately sized solid-bottom cages with contact bedding. The animal room is maintained on a 12-hour light/dark cycle. Animals are acclimated for 14 days prior to implantation of the NCI-H460 or HCT-116 cells on low folate diet (Teklad 130451) ad libitum and autoclaved tap water is provided ad libitum. The HCT-116 and NCI-H460 cell line are obtained from American Type Culture Collection (ATCC) and is cultured following ATCC instructions. Cells used for implantation are harvested during log phase growth and suspended in serum-free media. The suspended cells are then diluted 1:1 with BD Matrigel Matrix (ref 354234). Cells are injected in the right flank with 5.0E+06 cells (0.2 mL cell/Matrigel suspension). Tumors are monitored beginning day 8 post implant. Animals are redistributed into groups with 5-6 animals per group utilizing proprietary randomization software when average tumor volume reaches 200 mm^3. Groups 1-12 are maintained on a low folate diet (Teklad 130451) and folic acid (Sigma F8798 Lot #SLBH0909V) administration at doses listed in the Table 19 began 28 hours prior to dose initiation and 4 hours prior to each dose. Folic acid is formulated weekly in PBS and dosed via oral gavage at 0.2 mL. Groups 13-16 are placed on standard chow (Teklad 2920X) at randomization. The compound is formulated weekly in 20% HPBCD in Phosphate buffer pH 8 with one molar equivalent NaOH added. The formulated compound is administered at the doses and schedules indicated in Table 19 by oral gavage (0.2 mL). The vehicle is also given QD as the control arm of the study. Tumor volume and body weight are measured 2× a week. Tumor volume is determined by caliper measurements (mm) and using the formula for an ellipsoid sphere: tumor volume (mm^3)=length×width^2/2, where length and width refer to the larger and smaller perpendicular dimensions collected at each measurement. The animal behavior and animal health are monitored daily during dosing period.
The in vivo effects of AICARFT inhibition on the concentrations of pathway-related analytes are determined by liquid chromatography-mass spectrometry (LC-MS) analysis of tumor xenografts. Tumor xenograft samples on dry ice are weighed on an analytical balance, transferred to 2 mL Eppendorf Safe-Lock Tube™, and placed on dry ice. An internal standard solution containing 13C5-ZMP (1000 ng/mL), 13C5-AICAr (500 ng/mL), ascorbic acid (0.1%), and formic acid (0.1%) in MeOH/DCM (80:20) is prepared and stored at 20° C. For every mg of tissue in the sample tube, 10 L of internal standard solution is added. Standard curves containing ZMP, dUMP, AICAr at concentrations of 7.6-50,000 ng/mL are prepared separately in the internal standard solution.
One 5 mm steel bead (Qiagen) is added to each sample tube and the tubes are placed on wet ice for 15 minutes. Samples are homogenized on a Qiagen TissueLyser II for 5 minutes at 15 Hz, and then centrifuged on an Eppendorf 5430R microcentrifuge for 10 minutes at 13,000 rpm and 4° C. Aliquots of each supernatant (200 μL) are removed and placed into a deep 96-well plate. Aliquots (200 μL) of each standard curve solution are also placed in a deep 96-well plate. A Beckman Biomek FX liquid handler added DCM (600 μL) and 0.1% ascorbic acid solution (200 μL) to each well. The plate is sealed, vortexed for 5 minutes, and centrifuged for 5 minutes at 4,000 rpm and 4° C. on an Eppendorf 5810R centrifuge. Aliquots (75 μL) of the top layer are transferred to a clean 96-well plate, and an additional 75 μL of 40 mM ammonium acetate, pH 4 is added to each well. The plates are sealed prior to analysis. The LC-MS method utilized a Shimadzu Prominence 20A HPLC system connected to an AB Sciex 5500™ or an AB Sciex 6500™ triple quadrupole mass spectrometer running Analyst® software.

[3] = test system: colorectal carcinoma HCT-116; assay: Low folate in vitro proliferation assay, HCT-116; format: cell-based; details: Homo sapiens, 168 h; HCT-116, low folate media, 7 days
Text: Allow cells to attach overnight. […] Final concentration of compounds will be 1×. […] Dose cells with compounds of interest for 7 days. […] Determine % inhibition for each sample (see Table 18).

[4] = test system: colorectal carcinoma HCT-116; assay: In vitro proliferation assay, HCT-116; format: cell-based; details: Homo sapiens; HCT-116, standard media conditions
Experimental: (§1) Cells are grown using the cell banks recommended culture conditions on the date of sample acquisition. Prepare complete medium adding appropriate horse serum (ex. Invitrogen, Cat. No. 16050130) or FBS (ex. Invitrogen, Cat. No. 10099-141 or Hyclone Cat. No. CH30160.03) and additives.
(§2) For attached cell lines, remove and discard culture medium using a vacuum pump. […] Add 3.0 mL of Trypsin-EDTA solution to flask and observe cells under an inverted microscope until cell layer is dispersed. Add 8.0 mL of complete growth medium and aspirate cells by gently pipetting.
(§3) For suspension cell lines, transfer the cell suspension to a centrifuge tube and centrifuge at 800-1000 rpm for 3-5 minutes. Discard the supernatant using a vacuum pump. Add the appropriate volume of complete medium. Suspend the cell pellet by gently pipetting. Count the cell numbers and adjust cells to the appropriate seeding density. […]
(§4) Determine the concentrations to be tested and dilute the compounds to 200×final concentration in low folate media. […] Incubate plates at 37° C. for approximately 2 doubling times as determined for each cell line. […] Paste the clear bottom with white back seal and record luminescence with Flexstation3 (Molecular Devices). The settings should be: Luminescence, integration time 500 ms. […]

[5] = test system: large cell lung cancer NCI-H460; assay: In vitro proliferation assay, NCI-H460; format: cell-based; details: Homo sapiens; NCI-H460, standard media conditions
Experimental: as §1, §2, §3, §4

[6] = test system: panel of cell lines; assay: In vitro proliferation assay, cell line panel (CellTiter-Glo); format: cell-based; details: standard media conditions; summary of Table 17
Experimental: as §1, §2, §3, §4

Chain of AICARFT (Homo sapiens, UniProt P31939) (P31939 whole entry): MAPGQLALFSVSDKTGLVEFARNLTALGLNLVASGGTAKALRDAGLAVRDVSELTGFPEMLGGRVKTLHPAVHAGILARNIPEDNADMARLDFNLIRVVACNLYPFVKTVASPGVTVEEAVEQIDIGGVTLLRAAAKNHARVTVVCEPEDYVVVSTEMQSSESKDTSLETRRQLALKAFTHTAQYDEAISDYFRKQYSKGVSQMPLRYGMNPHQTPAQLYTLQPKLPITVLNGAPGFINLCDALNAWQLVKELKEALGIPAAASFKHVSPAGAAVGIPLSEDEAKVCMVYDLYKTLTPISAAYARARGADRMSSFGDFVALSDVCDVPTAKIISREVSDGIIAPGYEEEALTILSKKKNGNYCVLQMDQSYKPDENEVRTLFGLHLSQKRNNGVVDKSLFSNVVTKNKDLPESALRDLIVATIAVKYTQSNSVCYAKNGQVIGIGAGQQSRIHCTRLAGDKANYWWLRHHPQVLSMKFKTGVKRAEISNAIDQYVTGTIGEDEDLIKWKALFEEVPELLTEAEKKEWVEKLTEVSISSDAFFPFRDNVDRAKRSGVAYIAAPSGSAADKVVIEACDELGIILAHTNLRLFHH

Mean tumor ZMP ([2]; HCT-116 xenograft, Group 6, low folate diet, folic acid 0.75 mg/kg (QD × 15, orally), 10 mg/kg QD × 14, orally, Day 23) [µM]	Mean tumor ZMP ([2]; HCT-116 xenograft, Group 7, low folate diet, folic acid 0.75 mg/kg (QD × 15, orally), 30 mg/kg QD × 14, orally, Day 23) [µM]	Mean tumor ZMP ([2]; HCT-116 xenograft, Group 14, standard chow, no folic acid, 10 mg/kg QD × 14, orally, Day 23) [µM]	Mean tumor ZMP ([2]; HCT-116 xenograft, Group 15, standard chow, no folic acid, 30 mg/kg QD × 14, orally, Day 23) [µM]	Mean tumor ZMP ([2]; NCI-H460 xenograft, Group 14, standard chow, no folic acid, 10 mg/kg QD × 13, orally, Day 20) [µM]	Mean tumor ZMP ([2]; NCI-H460 xenograft, Group 15, standard chow, no folic acid, 30 mg/kg QD × 13, orally, Day 20) [µM]	IC50 [3] [nM]	Structure (SMILES)	Mean Plasma AICAr ([1]; 10 mg/kg QD) [nM]	Mean Plasma AICAr ([1]; 30 mg/kg QD) [nM]	Mean Plasma AICAr ([1]; 100 mg/kg QD) [nM]	Mean Plasma AICAr ([1]; 300 mg/kg QD) [nM]	in vivo inhibition of AICARFT (in words) [1]	IC50 [4] [nM]	IC50 [5] [nM]	inhibition of proliferation of cancer cells (in words) [6]
							O=c1[nH]ccc2cc(F)c(NS(=O)(=O)c3ccc(N4C[C@@H](O)[C@@H](F)C4)s3)cc12 (single isomer, unassigned) [Example 33]	98	213	726	1150	demonstrate in vivo inhibition of AICARFT			
20	35	7.0	26	3.7	66	3	O=c1[nH]ccc2cc(F)c(NS(=O)(=O)c3ccc(N4CC[C@@H](O)C4)s3)cc12 [Example 1, N-(6-Fluoro-1-oxo-1,2-dihydroisoquinolin-7-yl)-5-[(3R)-3-hydroxypyrrolidin-1-yl]thiophene-2-sulfonamide]	138	254	652	931	demonstrate in vivo inhibition of AICARFT	8100	610	inhibit proliferation of cancer cells
							O=c1[nH]ccc2cc(F)c(NS(=O)(=O)c3ccc(N4C[C@@H](O)C(F)(F)C4)s3)cc12 [Example 41, 5-[(4R)-3,3-difluoro-4-hydroxypyrrolidin-1-yl]-N-(6-fluoro-1-oxo-1,2-dihydroisoquinolin-7-yl)thiophene-2-sulfonamide]	158	362	1534	1373	demonstrate in vivo inhibition of AICARFT	10800	1880	inhibit proliferation of cancer cells
